Results: publication PMC6943437, “Coupling the Antimalarial Cell Penetrating Peptide TP10 to Classical Antimalarial Drugs Primaquine and Chloroquine Produces Strongly Hemolytic Conjugates” (Molecules, 2019)
“And” between values parts separate entries of the source, which are not always exact repeats. Equal entries are not always repeated. *1 amine or outer side, *2 acyl side, *3 side chain or, on linkers, in order; H or OH if unused. Where a SMILES comes first, the peptide text is derived from it. Where no end group is shown, it is not given here. The star is where a group is joined. NH(CH2)4NH(7-Cl-4-quinolyl) = Clc1ccc2c(NCCCCN*)ccnc2c1; Suc = O=C(CCC(=O)[*:2])[*:1]

Tests used:
Format in all cases: cell-based
[1] = In vitro hemolytic activity on healthy erythrocytes; settings: healthy erythrocytes (hRBC); 10 µM, 1 h, hRBC only; dash with footnote c = hemolysis not detected; read-out: % hemolysis at 10 µM ± SD (n = 3), hRBC
Experimental: (§1) For positive and negative controls, 1% Triton X-100 and PBS were added, respectively. After this period, the plates were centrifuged and supernatants transferred to another plate. Supernatant absorbance at 450 nm was assessed in a multi-mode microplate reader (Triad, Dynex Technologies, Chantilly, VA, USA) and values were treated using the following equation (1):(1) % Hemolysis=Abs−Abs(negative control)/Abs(positive control)−Abs(negative control)

[2] = In vitro hemolytic activity on Plasmodium-infected erythrocyte cultures; settings: cultures with 3% PiRBC, dash with footnote c = hemolysis not detected, read-out: % hemolysis at 10 µM ± SD (n = 3), PiRBC
Experimental: as §1

P. falciparum W2 = P. falciparum W2 (CQ-resistant), 48 h, n = 3
Experimental: All conjugates and their respective parent CPP (Table 1), were screened in vitro for their antiplasmodial activity, using the CQ-resistant P. falciparum W2 strain. The primaquine analogue to 5a, i.e., conjugate 3 where the CPP is TP10, PQ-C4-TP10 (3a), was also included in the study for comparison.
Synchronized ring-stage P. falciparum parasites (W2 strain) were incubated with test compounds for 48 h in Roswell Park Memorial Institute (RPMI) 1640 medium containing 10% human serum or 0.5% Albumax serum substitute. Parasites were then fixed with 1% formaldehyde in phosphate-buffered saline (PBS), pH 7.4, for […] at RT and labeled with YOYO-1 (1 nM; molecular probes) in 0.1% Triton X-100 in PBS. Parasitemias were determined by flow cytometry, from dot plots (forward scatter versus fluorescence). For 50% inhibitory concentration (IC50) determinations, dose-response studies were performed, with the values normalized to percent control activity, and IC50s were calculated using GraphPad Prism, with data fitted by nonlinear regression.

CC[C@H](C)[C@H](NC(=O)[C@H](CCCCN)NC(=O)[C@H](CCCCN)NC(=O)[C@H](C)NC(=O)[C@H](CC(C)C)NC(=O)[C@H](C)NC(=O)[C@H](C)NC(=O)[C@H](CC(C)C)NC(=O)[C@H](C)NC(=O)[C@H](CCCCN)NC(=O)[C@H](CC(C)C)NC(=O)[C@H](CC(N)=O)NC(=O)[C@@H](NC(=O)[C@H](CCCCN)NC(=O)CNC(=O)[C@H](CC(C)C)NC(=O)[C@H](CC(C)C)NC(=O)[C@H](Cc1ccc(O)cc1)NC(=O)CNC(=O)[C@H](C)N)[C@@H](C)CC)C(=O)N[C@@H](CC(C)C)C(=O)N[C@@H](CSSC[C@H](N)C(=O)NCCCC(C)Nc1cc(OC)cc2cccnc12)C(N)=O (some centres unmarked) [14′]
hemolysis at 1 h, 10 µM [1]: 99.7 ± 0.4% | hemolysis at 1 h, 10 µM [2]: 72 ± 9%

H-FFLIPKGGRKKRRQRRRPPQ-NH2 [PasTAT]
IC50 (P. falciparum W2): > 10 µM

CC[C@H](C)[C@H](NC(=O)[C@H](CCCCN)NC(=O)[C@@H](NC(=O)[C@H](CCC(N)=O)NC(=O)[C@H](CCCNC(=N)N)NC(=O)CCC(=O)NCCCCNc1ccnc2cc(Cl)ccc12)[C@@H](C)CC)C(=O)N[C@@H](Cc1c[nH]c2ccccc12)C(=O)N[C@@H](Cc1ccccc1)C(=O)N[C@@H](CCC(N)=O)C(=O)N[C@@H](CC(N)=O)C(=O)N[C@@H](CCCNC(=N)N)C(=O)N[C@@H](CCCNC(=N)N)C(=O)N[C@@H](CCSC)C(=O)N[C@@H](CCCCN)C(=O)N[C@@H](Cc1c[nH]c2ccccc12)C(=O)N[C@@H](CCCCN)C(=O)N[C@@H](CCCCN)C(N)=O [5i]
IC50 (P. falciparum W2): > 10 µM

H-RQKRLIRQKRLIRQKRLI-NH2 [DPT-sh2]
IC50 (P. falciparum W2): > 10 µM

CC[C@H](C)[C@H](NC(=O)[C@H](CCCCN)NC(=O)[C@H](CCCCN)NC(=O)[C@H](C)NC(=O)[C@H](CC(C)C)NC(=O)[C@H](C)NC(=O)[C@H](C)NC(=O)[C@H](CC(C)C)NC(=O)[C@H](C)NC(=O)[C@H](CCCCN)NC(=O)[C@H](CC(C)C)NC(=O)[C@H](CC(N)=O)NC(=O)[C@@H](NC(=O)[C@H](CCCCN)NC(=O)CNC(=O)[C@H](CC(C)C)NC(=O)[C@H](CC(C)C)NC(=O)[C@H](Cc1ccc(O)cc1)NC(=O)CNC(=O)[C@H](C)NC(=O)[C@H](CO)NC(=O)[C@H](CC(N)=O)NC(=O)[C@H](CC(C)C)NC(=O)[C@@H](NC(=O)[C@H](Cc1c[nH]c2ccccc12)NC(=O)CN)[C@@H](C)O)[C@@H](C)CC)C(=O)N[C@@H](CC(C)C)C(N)=O [Transportan]
IC50 (P. falciparum W2): 3.05 µM and 3.1 µM

CC[C@H](C)[C@H](NC(=O)[C@H](CCCCN)NC(=O)[C@@H](NC(=O)[C@H](CCC(=O)O)NC(=O)[C@H](CCCNC(=N)N)NC(=O)[C@H](CCCCN)NC(=O)[C@@H](NC(=O)[C@H](CCCCN)NC(=O)[C@H](CCCCN)NC(=O)[C@H](CCCCN)NC(=O)[C@H](CCCCN)NC(=O)[C@@H](NC(=O)CCC(=O)NCCCCNc1ccnc2cc(Cl)ccc12)C(C)C)[C@@H](C)CC)[C@@H](C)CC)C(N)=O [5c] ({NH(CH2)4NH(7-Cl-4-quinolyl)-Suc}-VKKKKIKREIKI-NH2)
IC50 (P. falciparum W2): > 10 µM

CC[C@H](C)[C@H](NC(=O)[C@H](CCCNC(=N)N)NC(=O)[C@@H](NC(=O)[C@H](C)NC(=O)[C@@H](NC(=O)[C@@H](NC(=O)[C@H](CC(C)C)NC(=O)[C@H](CCCNC(=N)N)NC(=O)[C@@H](NC(=O)CCC(=O)NCCCCNc1ccnc2cc(Cl)ccc12)C(C)C)[C@@H](C)CC)C(C)C)C(C)C)C(=O)N[C@@H](Cc1c[nH]c2ccccc12)C(=O)N[C@@H](CCCNC(=N)N)C(=O)N[C@@H](CCCNC(=N)N)C(N)=O [5e] ({NH(CH2)4NH(7-Cl-4-quinolyl)-Suc}-VRLIVAVRIWRR-NH2)
IC50 (P. falciparum W2): > 10 µM

CC[C@H](C)[C@H](NC(=O)[C@H](CCCCN)NC(=O)[C@H](CCCCN)NC(=O)[C@H](C)NC(=O)[C@H](CC(C)C)NC(=O)[C@H](C)NC(=O)[C@H](C)NC(=O)[C@H](CC(C)C)NC(=O)[C@H](C)NC(=O)[C@H](CCCCN)NC(=O)[C@H](CC(C)C)NC(=O)[C@H](CC(N)=O)NC(=O)[C@@H](NC(=O)[C@H](CCCCN)NC(=O)CNC(=O)[C@H](CC(C)C)NC(=O)[C@H](CC(C)C)NC(=O)[C@H](Cc1ccc(O)cc1)NC(=O)CNC(=O)[C@H](C)NC(=O)[C@H](CO)NC(=O)[C@H](CC(N)=O)NC(=O)[C@H](CC(C)C)NC(=O)[C@@H](NC(=O)[C@H](Cc1c[nH]c2ccccc12)NC(=O)CNC(=O)CCC(=O)NCCCCNc1ccnc2cc(Cl)ccc12)[C@@H](C)O)[C@@H](C)CC)C(=O)N[C@@H](CC(C)C)C(N)=O [5b]
IC50 (P. falciparum W2): 5.2 µM

CC[C@H](C)[C@H](NC(=O)[C@H](CC(C)C)NC(=O)[C@H](Cc1ccccc1)NC(=O)[C@H](Cc1ccccc1)NC(=O)CCC(=O)NCCCCNc1ccnc2cc(Cl)ccc12)C(=O)N1CCC[C@H]1C(=O)N[C@@H](CCCCN)C(=O)NCC(=O)NCC(=O)N[C@@H](CCCNC(=N)N)C(=O)N[C@@H](CCCCN)C(=O)N[C@@H](CCCCN)C(=O)N[C@@H](CCCNC(=N)N)C(=O)N[C@@H](CCCNC(=N)N)C(=O)N[C@@H](CCC(N)=O)C(=O)N[C@@H](CCCNC(=N)N)C(=O)N[C@@H](CCCNC(=N)N)C(=O)N[C@@H](CCCNC(=N)N)C(=O)N1CCC[C@H]1C(=O)N1CCC[C@H]1C(=O)N[C@@H](CCC(N)=O)C(N)=O [5g] ({NH(CH2)4NH(7-Cl-4-quinolyl)-Suc}-FFLIPKGGRKKRRQRRRPPQ-NH2)
IC50 (P. falciparum W2): 8.5 µM

VRLIVAVRIWRR-NH2 [IDR-1018]
IC50 (P. falciparum W2): > 10 µM

N=C(N)NCCC[C@H](NC(=O)[C@H](CCCNC(=N)N)NC(=O)[C@H](CCCNC(=N)N)NC(=O)[C@H](CCCNC(=N)N)NC(=O)[C@H](CCCNC(=N)N)NC(=O)[C@H](CCCNC(=N)N)NC(=O)[C@H](CCCNC(=N)N)NC(=O)[C@H](CCCNC(=N)N)NC(=O)[C@@H](N)CCCNC(=N)N)C(N)=O [R9]
IC50 (P. falciparum W2): > 10 µM

N=C(N)NCCC[C@H](NC(=O)CNC(=O)CCC(=O)NCCCCNc1ccnc2cc(Cl)ccc12)C(=O)N[C@@H](CCCCN)C(=O)N[C@@H](CCCCN)C(=O)N[C@@H](CCCNC(=N)N)C(=O)N[C@@H](CCCNC(=N)N)C(=O)N[C@@H](CCC(N)=O)C(=O)N[C@@H](CCCNC(=N)N)C(=O)N[C@@H](CCCNC(=N)N)C(=O)N[C@@H](CCCNC(=N)N)C(=O)N1CCC[C@H]1C(=O)N1CCC[C@H]1C(=O)N[C@@H](CCC(N)=O)C(N)=O [5f]
IC50 (P. falciparum W2): > 10 µM

N=C(N)NCCC[C@H](NC(=O)CN)C(=O)N[C@@H](CCCCN)C(=O)N[C@@H](CCCCN)C(=O)N[C@@H](CCCNC(=N)N)C(=O)N[C@@H](CCCNC(=N)N)C(=O)N[C@@H](CCC(N)=O)C(=O)N[C@@H](CCCNC(=N)N)C(=O)N[C@@H](CCCNC(=N)N)C(=O)N[C@@H](CCCNC(=N)N)C(=O)N1CCC[C@H]1C(=O)N1CCC[C@H]1C(=O)N[C@@H](CCC(N)=O)C(N)=O [TAT]
IC50 (P. falciparum W2): > 10 µM

CC[C@H](C)[C@H](NC(=O)[C@H](CCCCN)NC(=O)[C@@H](NC(=O)[C@H](CCC(N)=O)NC(=O)[C@@H](N)CCCNC(=N)N)[C@@H](C)CC)C(=O)N[C@@H](Cc1c[nH]c2ccccc12)C(=O)N[C@@H](Cc1ccccc1)C(=O)N[C@@H](CCC(N)=O)C(=O)N[C@@H](CC(N)=O)C(=O)N[C@@H](CCCNC(=N)N)C(=O)N[C@@H](CCCNC(=N)N)C(=O)N[C@@H](CCSC)C(=O)N[C@@H](CCCCN)C(=O)N[C@@H](Cc1c[nH]c2ccccc12)C(=O)N[C@@H](CCCCN)C(=O)N[C@@H](CCCCN)C(N)=O [Penetratin]
IC50 (P. falciparum W2): > 10 µM

CC[C@H](C)[C@H](NC(=O)[C@H](CCCCNC(=O)CCC(=O)NCCCCNc1ccnc2cc(Cl)ccc12)NC(=O)[C@H](CCCCN)NC(=O)[C@H](C)NC(=O)[C@H](CC(C)C)NC(=O)[C@H](C)NC(=O)[C@H](C)NC(=O)[C@H](CC(C)C)NC(=O)[C@H](C)NC(=O)[C@H](CCCCN)NC(=O)[C@H](CC(C)C)NC(=O)[C@H](CC(N)=O)NC(=O)[C@@H](NC(=O)[C@H](CCCCN)NC(=O)CNC(=O)[C@H](CC(C)C)NC(=O)[C@H](CC(C)C)NC(=O)[C@H](Cc1ccc(O)cc1)NC(=O)CNC(=O)[C@H](C)N)[C@@H](C)CC)C(=O)N[C@@H](CC(C)C)C(N)=O [compound 13]
hemolysis at 1 h, 10 µM [1]: 50 ± 2% | hemolysis at 1 h, 10 µM [2]: 41 ± 2%

N=C(N)NCCC[C@H](NC(=O)[C@H](CCCNC(=N)N)NC(=O)[C@H](CCCNC(=N)N)NC(=O)[C@H](CCCNC(=N)N)NC(=O)[C@H](CCCNC(=N)N)NC(=O)[C@H](CCCNC(=N)N)NC(=O)[C@H](CCCNC(=N)N)NC(=O)[C@H](CCCNC(=N)N)NC(=O)[C@H](CCCNC(=N)N)NC(=O)CCC(=O)NCCCCNc1ccnc2cc(Cl)ccc12)C(N)=O [5h]
IC50 (P. falciparum W2): > 10 µM

CC[C@H](C)[C@H](NC(=O)[C@H](CC(C)C)NC(=O)[C@H](CCCNC(=N)N)NC(=O)[C@H](CCCCN)NC(=O)[C@H](CCC(N)=O)NC(=O)[C@H](CCCNC(=N)N)NC(=O)[C@@H](NC(=O)[C@H](CC(C)C)NC(=O)[C@H](CCCNC(=N)N)NC(=O)[C@H](CCCCN)NC(=O)[C@H](CCC(N)=O)NC(=O)[C@H](CCCNC(=N)N)NC(=O)[C@@H](NC(=O)[C@H](CC(C)C)NC(=O)[C@H](CCCNC(=N)N)NC(=O)[C@H](CCCCN)NC(=O)[C@H](CCC(N)=O)NC(=O)[C@H](CCCNC(=N)N)NC(=O)CCC(=O)NCCCCNc1ccnc2cc(Cl)ccc12)[C@@H](C)CC)[C@@H](C)CC)C(N)=O [5d] ({NH(CH2)4NH(7-Cl-4-quinolyl)-Suc}-RQKRLIRQKRLIRQKRLI-NH2)
IC50 (P. falciparum W2): > 10 µM

H-VKKKKIKREIKI-NH2 [DPT-sh1]
IC50 (P. falciparum W2): > 10 µM
